Experiments:
[1] = Particle size by scanning electron microscopy (length and width of 200 particles); assay type: physicochemical; conditions: SEM, GAS at 35 °C, 80 bar
Method: Berberine was micronized using the antisolvent gas technique based on the studies of Pessoa et al. (2019) and Sakata et al. (2021). First, the solution was prepared at 1 mg/mL with the selected solvents and then added to the cell. The CO2 was introduced into the cell at a flow rate of 10 and 20 mL/min until the pressure reached 80 bar, with an operating temperature of 35 °C. The mixture was held at 80 bar for 10 min for homogenization. The solvent was removed by passing CO2 at constant pressure with open inlet and outlet valves. Once all the solvent had been removed, the reaction cell was depressurized, and the particles were collected.
Morphology and particle size were examined by scanning electron microscopy (JEOL JSM-6390LV.). Length and width measurements of 200 particles were obtained for each sample using Size Meter Software (version 1.1).

[2] = Solubility analysis of berberine in organic solvents (excess compound, 24 h agitation, spectrophotometer); assay type: physicochemical; conditions: organic solvent or mixture, thermodynamic from solid
Method: The solubility study of the compound in different solvents was carried out. Acetone, ethanol, methanol, 1-propanol, 1-butanol, and dichloromethane were used. An excess compound was added to 100 mL of solvent at 25 and 35 °C. The solution was agitated at 100 rpm for 24 h to achieve solid–liquid equilibrium. It was then left for 2 h without stirring to allow the sedimentation of the insolubilized particles. An aliquot was taken and analyzed with a spectrophotometer.

[3] = listed as Nonmicronized berberine

With `COc1ccc2cc3[n+](cc2c1OC)CCc1cc2c(cc1-3)OCO2` [Berberine, Berberine chloride] the “particle size, length” value [1, 3] was 13.24 μm, the “particle size, width” value [1, 3] was 6.39 μm and the “particle size, length” value ([1]; listed as Raw) was 13.24 ± 8.66 μm. For the same molecule, the “particle size, width” value ([1]; listed as Raw) was 6.39 ± 5.39 μm, the solubility at 24 h ([2]; 1-butanol, 25 °C) was 5.4 ± 0.578 µg/mL and the solubility at 24 h ([2]; 1-propanol, 25 °C) was 3 ± 0.168 µg/mL. It also gave a solubility at 24 h ([2]; 1-propanol, 35 °C) of 4.33 ± 0.082 µg/mL, a solubility at 24 h ([2]; acetone, 25 °C) of 0.16 ± 0.004 µg/mL and a solubility at 24 h ([2]; acetone, 35 °C) of 0.2 ± 0.007 µg/mL. It also gave a solubility at 24 h ([2]; dichloromethane, 25 °C) of 1.27 ± 0.032 µg/mL, a solubility at 24 h ([2]; dichloromethane, 35 °C) of 3.47 ± 0.091 µg/mL and a solubility at 24 h ([2]; ethanol, 25 °C) of 2.82 ± 0.086 µg/mL. For the same molecule, the solubility at 24 h ([2]; ethanol, 35 °C) was 4.57 ± 0.254 µg/mL, the solubility at 24 h ([2]; methanol, 25 °C) was 15.4 ± 1.61 µg/mL and the solubility at 24 h ([2]; methanol, 35 °C) was 35 ± 1.98 µg/mL.

Reference: paper PMC12593154, “Overcoming Solubility Challenges: Micronization of Berberine Using the GAS Antisolvent Technique” (ACS Omega, 2025)
